From patent US20030087906A1, “NITROGEN SUBSTITUTED BIARYL PURINE DERIVATIVES AS POTENT ANTIPROLIFERATIVE AGENTS” (priority 2001, published 2003)

Experiments:
[1] = test system: implanted tumors; test: Efficacy study: delay in growth of implanted tumors, regressions, tumor-free survivors; type: in vivo, athymic mice
Method: The following data in Table 9 summarize the in vivo properties of several compounds of the current invention. The protocol for the experiment is as follows. The dose-range finding study consists of four groups of three athymic mice each (four dose levels.) The compound is administered on the basis of individual animal body weight. The route is intraperitoneal (IP) and the treatment schedule is daily for 14 days (qd×14) or once every 4 days for 12 days (q4d×3).
The efficacy study consists of three compound-treated groups (six mice/group), a positive control-treated group (six mice), and a vehicle-treated control group of 12 mice. Test compounds were administered IP under the treatment schedules listed above (qd×14 or q4d×3), whereas the positive control agent (Taxol) was administered intravenously (IV) at a dosage level of 15 mg/kg/dose for five consecutive days (qd×5). All agents were administered on the basis of individual animal body weight. Treatment began when the implanted tumors were approximately 100 mg in size (range of 65 to 200 mg). The mice were observed daily for survival. Each tumor was measured by caliper in two dimensions and converted to tumor mass using the formula for a prolate ellipsoid (a×b^2/2) and assuming unit density. Tumor measurements and animal body weights were recorded twice weekly. Antitumor activity was assessed by the delay in tumor growth of the treated groups in comparison to the vehicle-treated control group, partial and complete regressions, and tumor-free survivors.

[2] = test system: 60-human transformed cell lines; test: NCI 60-cell line growth inhibition assay (whole panel); type: cell-based; conditions: range over 60 cell lines

Structure (SMILES) | T-C ([1]; 0.27 mg/kg IP q4d × 3) [days] | Tumor free/total ([1]; 0.27 mg/kg IP q4d × 3) | T-C ([1]; 0.4 mg/kg IP q4d × 3) [days] | Tumor free/total ([1]; 0.4 mg/kg IP q4d × 3) | T-C ([1]; 0.6 mg/kg IP q4d × 3) [days] | Tumor free/total ([1]; 0.6 mg/kg IP q4d × 3) | GI50 [2] [µM]
CC(C)n1cnc2c(NCc3ccc(-c4ccsc4)cc3)nc(N[C@H]3CC[C@H](N)CC3)nc21 [Compound 12] | 1.2 | 0/6 | 0.2 | 0/6 | 0.3 | 0/6 | –
Cn1cnc2c(NCc3ccccc3)nc(NCCO)nc21 [Olomoucine, reference compound] | – | – | – | – | – | – | 20 to 100
